From US20020193627A1, “Novel crystalline disodium pamidronate hydrate and process for preparing it” (priority 1999, published 2002) come the findings set out here.

Like-named read-outs stand apart in the source and are kept apart here.

Data set [1] in a line: Thermal Gravity Assay (TGA). Format: physicochemical. The procedure:
In order to confirm the physical properties of 3˜4 hydrates prepared in the example 2, the lattice distances (d-values) and relative line sensitivities of X-ray diffraction patterns were measured on the conditions of step sizes 0.012 from 2 theta 5 to 2 theta 50, scan velocity 3.000 and time 2.000 by using Rigaku D/Max-IIIB X-ray Diffractometer (XRD). The test results were shown on FIG. 1a and FIG. 1b. Thermal Gravity Assay for 3˜4 hydrates (TGA data) was carried out by using TA Instruments Model 2950 TGA Thermal Analyzer (TGA). The lost weight of the 3˜4 hydrtes was measured by gradually raising the temperature of 10° C. per minute from room temperature to 500° C. The results were shown on FIG. 2.

The nature of data set [2]: Soft gelatine capsule storage stability by visual observation. In kind it is physicochemical. The conditions noted are these: soft gelatine capsules (125 mg); 24° C., 50% RH; 6 months. Here is the method: Soft gelatine capsules(125 mg) were respectively prepared from the crystalline disodium pamidronates of example 2 and comparative example by a conventional soft capsule manufacturing method. The soft capsules were stored in chamber which is controlled a constant temperature and hymidity (24° C., 50% RH) for 6 months. The stabilities of the soft capsules were tested by visual observation for the changes of properties, colors or shapes.

The conditions of data set [3]: for Stability Evaluation (Stable hydrate): form listed as stable. Here is the method:
(1) anhydrous disodium pamidronate, (2) disodium pamidronate 3˜4 hydrates prepared in the example 2(water contents 18.50%), (3) disodium pamidronate 5 hydrates (water contents 24.41%)
(1) 1.000 g 1.200 g of anhydrous disodium pamidronate was accurately weighed and 15 samples were prepared.
(2) 1.000 g -1.200 g of disodium pamidronate 3˜4 hydrates was accurately weighed and I; samples were prepared.
(3) 1.000 g-1.200 g of disodium pamidronate 5 hydrates was accurately weighed and 15 samples were prepared.
(4) The tests were carried out under the following conditions:
1) Temperature (T) and humidity (relative humidity: RH): i) 24° C., 50% RH, ii) 40° C., 0% RH, iii) 40° C., 75% RH […]
i) 1 week ii) 2 weeks, iii) 3 weeks, iv) 4 weeks. v) 5 weeks
(5) After the tests were carried out, each sample was dried under reduced pressurekbelow 5 mmHg) at 150° C. for 5 hours, weighed the lost weight and determined the water contents.
The values show water contents (%).

On to `NCCC(O)(P(=O)([O-])O)P(=O)([O-])O.[Na+].[Na+]` [Example 2, crystalline disodium pamidronate 3˜4 hydrates], for which the “temperature from which water loss begins (TGA)” value in data set [1] (10° C. per minute from room temperature to 500° C.) was found to be 50 °C. Moreover, the “weight loss (TGA)” value in data set [1] (till 221.11° C., 14.26%+3.845%, error of measurement ±3%) turned out to be 18.105%. For the same compound, in data set [2], the “changes of properties, colors or shapes of soft capsules by visual observation” value is given as “No changes are observed”. The water contents turned out to be 18.19% in data set [3] (24° C., 50% RH, 1 week); 18.03% in data set [3] (24° C., 50% RH, 2 weeks); 18.04% in data set [3] (24° C., 50% RH, 3 weeks); 18.31% in data set [3] (24° C., 50% RH, 4 weeks); 18.28% in data set [3] (24° C., 50% RH, 5 weeks); 17.12% in data set [3] (40° C., 0% RH, 1 week). Also, the water contents is given as 17.20% in data set [3] (40° C., 0% RH, 2 weeks); 17.37% in data set [3] (40° C., 0% RH, 3 weeks); 17.10% in data set [3] (40° C., 0% RH, 4 weeks); 17.22% in data set [3] (40° C., 0% RH, 5 weeks); 17.20% in data set [3] (40° C., 75% RH, 1 week); 17.66% in data set [3] (40° C., 75% RH, 2 weeks). The water contents was found to be 17.45% in data set [3] (40° C., 75% RH, 3 weeks); 17.15% in data set [3] (40° C., 75% RH, 4 weeks); 17.26% in data set [3] (40° C., 75% RH, 5 weeks). The “Stability Evaluation (Stable hydrate)” value in data set [3] (24° C., 50% RH) was 3-4 hydrate; in data set [3] (40° C., 0% RH), 3-4 hydrate; in data set [3] (40° C., 75% RH), 3-4 hydrate. The “behaviour of water contents on storage” value in data set [3] (40° C. 0% RH) and in data set [3] (40° C. 75% RH) was “maintained stably” each time. Further, in data set [3] (all storage conditions), the “overall stability among disodium pamidronate hydrates” value is on record as “structurally the most stable”.

For the compound `NCCC(O)(P(=O)([O-])O)P(=O)([O-])O.[Na+].[Na+]` [comparative example, disodium 3-amino-1-hydroxypropane-1,1-diphosphonate], the “changes of properties, colors or shapes of soft capsules by visual observation” value in data set [2] was “changed in shapes (partly collapse by releasing water), colors and dewy phenomena on inner parts of the capsules”. The “behaviour of water contents on storage” value is listed as “lost from 1 week” in data set [3] (24° C. 50% RH), “maintained stably” in data set [3] (40° C. 0% RH) and “maintained stably” in data set [3] (40° C. 75% RH). The water contents in data set [3] (24° C., 50% RH, 1 week) was 19.14%; in data set [3] (24° C., 50% RH, 2 weeks) it was 18.79%; in data set [3] (24° C., 50% RH, 3 weeks) it was 18.29%; in data set [3] (24° C., 50% RH, 4 weeks), 18.43%; in data set [3] (24° C., 50% RH, 5 weeks), 18.37%; in data set [3] (40° C., 0% RH, 1 week) it was 24.44%. Further, the water contents in data set [3] (40° C., 0% RH, 2 weeks) was 24.19%; in data set [3] (40° C., 0% RH, 3 weeks) it was 23.52%; in data set [3] (40° C., 0% RH, 4 weeks), 23.01%; in data set [3] (40° C., 0% RH, 5 weeks), 22.21%; in data set [3] (40° C., 75% RH, 1 week) it was 24.02%; in data set [3] (40° C., 75% RH, 2 weeks), 24.43%. Moreover, the water contents in data set [3] (40° C., 75% RH, 3 weeks) is reported as 24.35%; in data set [3] (40° C., 75% RH, 4 weeks), 23.65%; in data set [3] (40° C., 75% RH, 5 weeks), 23.55%. Moreover, the “Stability Evaluation (Stable hydrate)” value in data set [3] (40° C., 0% RH, listed as 5 hydrate) was 5 hydrate; in data set [3] (40° C., 75% RH, listed as 5 hydrate), 5 hydrate.

With anhydrous disodium pamidronate, the “behaviour of water contents on storage” value in data set [3] (24° C. 50% RH) was “absorbed water”; in data set [3] (24° C., 0% RH) it was “maintained stably”. For the same compound, the “time after which converted to 3˜4 hydrates” value in data set [3] (24° C. 50% RH) worked out at 4 weeks; in data set [3] (40° C. 75% RH), 3 weeks. For the same compound, the water contents in data set [3] (24° C., 50% RH, 1 week) is 1.45%; in data set [3] (24° C., 50% RH, 2 weeks), 8.42%; in data set [3] (24° C., 50% RH, 3 weeks), 13.34%; in data set [3] (24° C., 50% RH, 4 weeks), 17.19%; in data set [3] (24° C., 50% RH, 5 weeks), 17.84%; in data set [3] (40° C., 0% RH, 1 week), 0.02%. Besides, the water contents in data set [3] (40° C., 0% RH, 2 weeks) came to 0.06%; in data set [3] (40° C., 0% RH, 3 weeks) it was 0.05%; in data set [3] (40° C., 0% RH, 4 weeks), 0.08%; in data set [3] (40° C., 0% RH, 5 weeks), 0.10%; in data set [3] (40° C., 75% RH, 1 week), 7.14%; in data set [3] (40° C., 75% RH, 2 weeks), 14.39%. Besides, the water contents in data set [3] (40° C., 75% RH, 3 weeks) is listed as 18.20%; in data set [3] (40° C., 75% RH, 4 weeks), 18.24%; in data set [3] (40° C., 75% RH, 5 weeks), 18.22%. Also, the “Stability Evaluation (Stable hydrate)” value in data set [3] (40° C., 0% RH) is “anhydrous form”.
